Laboratory results reported in patent US6660473B1, “C-terminal protein tagging” (Phylos, Inc., priority 1999, dated 2003).

Columns and labels:
[1] = system: stalled translation reaction (myc-dA30 in rabbit reticulocyte lysate); settings: 130 μM added to stalled translation reaction; 500 mM KCl, 20 mM MgCl2; anti-myc immunoprecipitation
Text: Myc dsDNA was generated by standard methods of PCR to include a 5′-T7 promoter for in vitro synthesis of mRNA using T7 polymerase and a deletion mutant of the tobacco mosaic virus 5′-UTR to induce efficient translation initiation in rabbit reticulocyte lysates. The 3′-end of the myc construct was devoid of stop codons to prevent protein release from the ribosome.
Transcription of the myc PCR product (using the MegaSHORTscript kit, Ambion) gave large quantities of RNA using T7 RNA polymerase. Purified RNA was then subjected to a splinted ligation reaction with a 5′-phosphorylated dA30 oligonucleotide catalyzed by T4 DNA ligase. The 3′-dA30 region facilitates ribosomal stalling and thereby increases the proportion of RNA-ribosome-protein complexes available for labeling. The purified myc-dA30 construct was then translated in rabbit reticulocyte lysate (Ambion) with ^35S-methionine and stalled under high salt conditions (500 mM KCl, 20 mM MgCl2).
Biotin-TEG-dCdCdA was used as a control. The radiolabled myc peptide was then isolated by immunoprecipitation with an anti-myc monoclonal antibody (Chemicon) and protein A sepharose (Sigma). Control and C-terminally-labeled peptide were then applied to a microscope slide prefunctionalized with NeutrAvidin™ (Pierce).

[2] = system: stalled translation reaction (10Fn3-dA30 in rabbit reticulocyte lysate); settings: labeling as in the myc experiment; Co2+-NTA purification
[3] = biological target: ribosomal peptidyl transferase; settings: ribosomal peptidyl transferase site; cited from earlier work

Compound | immobilization of 35S-labeled myc epitope on NeutrAvidin slide (phosphorimaging) [1] | immobilization of radiolabeled 10Fn3 on NeutrAvidin-spotted chip (phosphorimaging) [2] | Kd of unmodified puromycin [3]
Biotin-TEG-dCdC-puromycin | biotin-dependent immobilization of myc epitope to the chip surface | presence of radiolabeled ^10Fn3 | 
Biotin-TEG-dCdCdA | no significant label |  | 
COc1ccc(C[C@H](N)C(=O)N[C@H]2[C@@H](O)[C@H](n3cnc4c(N(C)C)ncnc43)O[C@@H]2CO)cc1 [puromycin] |  |  | in the micromolar range
